This note sets out measurements from patent EP4660182A1, “NAV1.7- AND/OR NAV1.8-INHIBITING ARYL PYRIDINE COMPOUNDS, PROCESSES FOR THE PREPARATION THEREOF, COMPOSITIONS, USES, METHODS FOR TREATMENT USING SAME, AND KITS” (Eurofarma Laboratórios S.A., priority 2023, dated 2024).

The target in experiment [1] is T1, human sodium channels Nav 1.7 (Homo sapiens, UniProt Q15858).
T1 construct: expressed in transfected cells
The experiment is described as follows: Automated whole-cell voltage-clamp (ScreenPatch 384P) sodium current block, Nav 1.7. Conditions: CHO cells stably expressing human Nav 1.7; inactivation step -40 mV 8 s, test step 0 mV (TP1A); eight concentrations; exposure at least five minutes; room temperature; read-out: Nav1.7 IC50. Type of experiment: cell-based. The method in brief: (§1)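 Stable CHO lines, whole-cell automated patch clamp at room temperature, ≥5 min exposure, eight concentrations. From -100 mV hold, 8 s at -40 mV, 20 ms at -100 mV, then test pulse to 10 mV (Nav 1.8) or 0 mV (Nav 1.7) at 0.05 Hz; peak-current % block fitted for IC50, averaged over repeats.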

For experiment [2], the target named is T2, human sodium channels Nav 1.8 (Homo sapiens, UniProt Q9Y5Y9).
T2 construct: expressed in transfected cells
T2 sequence (Q9Y5Y9 whole entry): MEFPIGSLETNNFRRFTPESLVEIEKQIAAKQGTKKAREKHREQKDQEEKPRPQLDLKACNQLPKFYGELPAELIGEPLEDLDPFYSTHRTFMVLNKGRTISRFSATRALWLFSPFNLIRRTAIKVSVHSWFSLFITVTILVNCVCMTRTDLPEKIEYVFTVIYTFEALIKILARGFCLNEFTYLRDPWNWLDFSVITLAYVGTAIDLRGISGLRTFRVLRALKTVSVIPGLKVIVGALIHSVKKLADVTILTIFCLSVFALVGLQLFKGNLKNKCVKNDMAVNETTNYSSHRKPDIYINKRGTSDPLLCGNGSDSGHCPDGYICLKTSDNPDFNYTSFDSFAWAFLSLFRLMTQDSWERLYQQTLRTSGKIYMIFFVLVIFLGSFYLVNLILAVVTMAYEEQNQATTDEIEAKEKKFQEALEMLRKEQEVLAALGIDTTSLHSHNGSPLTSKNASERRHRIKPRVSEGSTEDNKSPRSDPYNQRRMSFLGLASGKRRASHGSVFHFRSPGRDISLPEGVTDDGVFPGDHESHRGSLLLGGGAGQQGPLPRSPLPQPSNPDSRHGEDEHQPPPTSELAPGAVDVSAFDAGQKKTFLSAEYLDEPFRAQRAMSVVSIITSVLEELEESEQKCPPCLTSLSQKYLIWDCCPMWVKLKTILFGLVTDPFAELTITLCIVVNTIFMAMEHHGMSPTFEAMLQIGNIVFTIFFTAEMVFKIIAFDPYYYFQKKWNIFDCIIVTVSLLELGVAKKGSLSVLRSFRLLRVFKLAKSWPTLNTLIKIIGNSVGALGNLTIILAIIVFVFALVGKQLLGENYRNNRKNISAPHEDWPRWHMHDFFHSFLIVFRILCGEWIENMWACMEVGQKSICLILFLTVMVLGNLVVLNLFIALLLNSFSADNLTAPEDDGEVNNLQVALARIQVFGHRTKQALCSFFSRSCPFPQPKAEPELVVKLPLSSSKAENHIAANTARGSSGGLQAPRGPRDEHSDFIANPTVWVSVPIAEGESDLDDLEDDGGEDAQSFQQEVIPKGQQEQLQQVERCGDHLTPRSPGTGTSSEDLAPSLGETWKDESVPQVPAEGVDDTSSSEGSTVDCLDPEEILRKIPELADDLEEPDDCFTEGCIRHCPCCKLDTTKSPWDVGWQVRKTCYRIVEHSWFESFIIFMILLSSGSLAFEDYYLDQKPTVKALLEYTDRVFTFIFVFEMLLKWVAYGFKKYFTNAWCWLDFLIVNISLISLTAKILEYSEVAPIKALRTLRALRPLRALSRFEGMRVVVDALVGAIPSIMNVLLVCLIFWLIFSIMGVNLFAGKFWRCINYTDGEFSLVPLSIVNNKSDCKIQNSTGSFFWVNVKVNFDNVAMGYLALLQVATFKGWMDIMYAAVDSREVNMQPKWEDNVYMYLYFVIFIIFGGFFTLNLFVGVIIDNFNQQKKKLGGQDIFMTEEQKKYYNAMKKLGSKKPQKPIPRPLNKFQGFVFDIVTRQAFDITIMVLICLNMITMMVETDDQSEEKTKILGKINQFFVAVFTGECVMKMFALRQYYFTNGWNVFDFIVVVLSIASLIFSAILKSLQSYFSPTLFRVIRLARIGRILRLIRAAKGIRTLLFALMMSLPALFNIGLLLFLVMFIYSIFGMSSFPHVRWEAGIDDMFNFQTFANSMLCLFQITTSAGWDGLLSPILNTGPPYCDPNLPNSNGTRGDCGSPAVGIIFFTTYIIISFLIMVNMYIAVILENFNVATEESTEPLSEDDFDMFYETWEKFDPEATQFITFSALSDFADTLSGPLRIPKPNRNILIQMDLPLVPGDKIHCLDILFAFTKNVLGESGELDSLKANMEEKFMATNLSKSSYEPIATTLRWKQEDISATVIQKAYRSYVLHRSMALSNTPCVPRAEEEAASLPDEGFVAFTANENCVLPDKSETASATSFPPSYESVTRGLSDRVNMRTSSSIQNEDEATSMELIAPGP
Description: Automated whole-cell voltage-clamp (ScreenPatch 384P) sodium current block, Nav 1.8. Type of experiment: cell-based. Particulars: CHO cells stably expressing human Nav 1.8; inactivation step -40 mV 8 s, test step 10 mV (TP1A); eight concentrations; exposure at least five minutes; room temperature; read-out: Nav1.8 IC50. The method in brief:
as §1

Where only a bound is given, the exact number is not on record here.

T1 sequence (Q15858 whole entry): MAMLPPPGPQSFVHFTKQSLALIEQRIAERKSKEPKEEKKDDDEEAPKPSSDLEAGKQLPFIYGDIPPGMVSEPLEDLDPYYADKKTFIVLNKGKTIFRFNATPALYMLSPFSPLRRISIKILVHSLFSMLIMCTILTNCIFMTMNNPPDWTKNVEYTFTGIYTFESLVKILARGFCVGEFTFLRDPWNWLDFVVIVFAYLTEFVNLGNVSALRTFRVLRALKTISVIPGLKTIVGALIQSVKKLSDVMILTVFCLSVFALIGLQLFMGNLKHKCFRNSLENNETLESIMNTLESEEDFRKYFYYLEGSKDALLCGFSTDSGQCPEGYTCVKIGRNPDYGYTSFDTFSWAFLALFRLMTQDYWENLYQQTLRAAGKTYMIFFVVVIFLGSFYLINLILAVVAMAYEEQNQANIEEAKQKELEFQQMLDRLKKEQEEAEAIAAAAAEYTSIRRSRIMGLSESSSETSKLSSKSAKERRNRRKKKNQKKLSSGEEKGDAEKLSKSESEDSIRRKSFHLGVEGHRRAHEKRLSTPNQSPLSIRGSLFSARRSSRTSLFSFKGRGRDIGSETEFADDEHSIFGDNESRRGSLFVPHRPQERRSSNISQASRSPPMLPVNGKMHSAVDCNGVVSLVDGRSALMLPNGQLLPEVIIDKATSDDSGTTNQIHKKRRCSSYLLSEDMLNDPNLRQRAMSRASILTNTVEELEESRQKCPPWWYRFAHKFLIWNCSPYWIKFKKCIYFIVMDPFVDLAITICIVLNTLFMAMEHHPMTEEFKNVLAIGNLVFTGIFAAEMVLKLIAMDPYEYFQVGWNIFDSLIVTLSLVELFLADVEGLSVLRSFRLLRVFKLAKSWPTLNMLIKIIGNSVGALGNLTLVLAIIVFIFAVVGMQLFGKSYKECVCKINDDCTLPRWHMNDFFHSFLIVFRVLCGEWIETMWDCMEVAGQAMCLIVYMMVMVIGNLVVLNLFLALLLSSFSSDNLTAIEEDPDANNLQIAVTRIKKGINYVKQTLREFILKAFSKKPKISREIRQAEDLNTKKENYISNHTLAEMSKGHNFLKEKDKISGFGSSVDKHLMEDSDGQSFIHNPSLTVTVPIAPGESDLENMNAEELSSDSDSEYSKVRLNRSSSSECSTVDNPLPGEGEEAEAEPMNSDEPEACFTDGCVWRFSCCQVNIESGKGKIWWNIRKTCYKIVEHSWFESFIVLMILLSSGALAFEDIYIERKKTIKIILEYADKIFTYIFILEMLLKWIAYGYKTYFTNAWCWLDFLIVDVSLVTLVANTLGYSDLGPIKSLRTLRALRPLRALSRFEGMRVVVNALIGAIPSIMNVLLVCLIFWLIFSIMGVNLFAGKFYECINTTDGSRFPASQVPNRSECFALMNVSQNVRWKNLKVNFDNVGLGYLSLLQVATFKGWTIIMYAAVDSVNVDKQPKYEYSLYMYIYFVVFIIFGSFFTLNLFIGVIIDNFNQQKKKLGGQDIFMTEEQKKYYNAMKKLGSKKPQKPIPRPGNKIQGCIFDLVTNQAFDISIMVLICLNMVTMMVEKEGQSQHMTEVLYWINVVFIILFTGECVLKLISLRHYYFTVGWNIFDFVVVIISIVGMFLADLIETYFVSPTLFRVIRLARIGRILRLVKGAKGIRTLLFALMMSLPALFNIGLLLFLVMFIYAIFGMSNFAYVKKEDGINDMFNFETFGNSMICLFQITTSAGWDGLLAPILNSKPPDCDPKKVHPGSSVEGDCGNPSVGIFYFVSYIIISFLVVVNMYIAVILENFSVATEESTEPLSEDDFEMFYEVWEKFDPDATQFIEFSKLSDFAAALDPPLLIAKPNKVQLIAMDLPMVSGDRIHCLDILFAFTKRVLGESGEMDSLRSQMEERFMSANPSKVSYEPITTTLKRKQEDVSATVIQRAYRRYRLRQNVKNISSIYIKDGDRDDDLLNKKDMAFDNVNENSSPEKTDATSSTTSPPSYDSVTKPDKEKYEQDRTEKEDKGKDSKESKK

The term IC50 denotes the concentration at which inhibition is half-maximal. As to `CN(C)c1ccc(F)c(/C=N/NC(=O)c2cncc(-c3ccc(OC(F)F)nc3)n2)c1` [Compound 104, (E)-6-(6-(difluoromethoxy)pyridine-3-yl)-N'-(5-(dimethylamino)-2-fluorobenzylidene) pyrazine-2-carbohydrazide], the values for the IC50 in experiment [1] and in experiment [2] were above 1000 nM and below 500 nM, respectively.
With `CN(C)c1cnc(F)c(/C=N/NC(=O)c2cncc(-c3ccc(OC(F)F)nc3)n2)c1` [Compound 105, (E)-6-(6-(difluoromethoxy)pyridine-3-yl)-N'-((5-(dimethylamino)-2-fluoropyridine-3-yl)methylene)pyrazine-2-carbohydrazide], the IC50 in experiment [1] and in experiment [2] was above 1000 nM throughout.
For `COc1cc(/C=N/NC(=O)c2cncc(-c3ccc(OC(F)F)nc3)n2)c(F)cn1` [Compound 106, (E)-6-(6-(difluoromethoxy)pyridine-3-yl)-N'-((5-fluoro-2-methoxypyridine-4-yl)methylene)pyrazine-2-carbohydrazide], the figures for the IC50 in experiment [1] and in experiment [2] were above 1000 nM and 500 to 1000 nM, respectively.
As to `COc1cncc(/C=N/NC(=O)c2cncc(-c3ccc(OC(F)F)nc3)n2)c1` [Compound 107, (E)-6-(6-(difluoromethoxy)pyridine-3-yl)-N'-((5-methoxypyridine-3-yl)methylene)pyrazine-2-carbohydrazide], the 50% inhibitory concentration (IC50) in experiment [1] and in experiment [2] was above 1000 nM in each case.
For the molecule `CC(O)c1cccc(/C=N/NC(=O)c2cncc(-c3ccc(OC(F)F)nc3)n2)c1` (stereo not shown) [Compound 109, (E)-6-(6-(difluoromethoxy)pyridine-3-yl)-N'-(3-(1-hydroxyethyl)benzylidene) pyrazine-2-carbohydrazide], the IC50 is above 1000 nM in experiment [1] and 500 to 1000 nM in experiment [2].
For the molecule `CC(O)c1ccc(F)c(/C=N/NC(=O)c2cncc(-c3ccc(OC(F)F)nc3)n2)c1` (stereo not shown) [Compound 110, (E)-6-(6-(difluoromethoxy)pyridine-3-yl)-N'-(2-fluoro-5-(1-hydroxyethyl)benzylidene)pyrazine-2-carbohydrazide], the values for the IC50 in experiment [1] and in experiment [2] were above 1000 nM and below 500 nM, respectively.
In the same order, the values of `CC(O)c1cncc(/C=N/NC(=O)c2cncc(-c3ccc(OC(F)F)nc3)n2)c1` (stereo not shown) [Compound 111, (E)-6-(6-(difluoromethoxy)pyridine-3-yl)-N'-((5-(1-hydroxyethyl)pyridine-3-yl)methylene)pyrazine-2-carbohydrazide] are above 1000 nM and above 1000 nM.
As to `CC(O)c1cnc(F)c(/C=N/NC(=O)c2cncc(-c3ccc(OC(F)F)nc3)n2)c1` (stereo not shown) [Compound 112, (E)-6-(6-(difluoromethoxy)pyridine-3-yl)-N'-((2-fluoro-5-(1-hydroxyethyl)pyridine-3-yl)methylene)pyrazine-2-carbohydrazide], the results for the IC50 in experiment [1] and in experiment [2] were above 1000 nM and 500 to 1000 nM, respectively.
In the same order, the values of `O=C(N/N=C/c1cc(O)cnc1F)c1cncc(-c2ccc(OC(F)F)nc2)n1` [Compound 113, (E)-6-(6-(difluoromethoxy)pyridine-3-yl)-N'-((2-fluoro-5-hydroxypyridine-3-yl)methylene)pyrazine-2-carbohydrazide] are above 1000 nM and 500 to 1000 nM.
As for `CC(O)c1ccnc(/C=N/NC(=O)c2cncc(-c3ccc(OC(F)F)nc3)n2)c1` (stereo not shown) [Compound 114, (E)-6-(6-(difluoromethoxy)pyridine-3-yl)-N'-((4-(1-hydroxyethyl)pyridine-2-yl)methylene)pyrazine-2-carbohydrazide], the concentration for half-maximal inhibition (IC50) in experiment [1] and in experiment [2] was above 1000 nM in each case.
Consider `O=C(N/N=C/c1cccc(O)n1)c1cncc(-c2ccc(OC(F)F)nc2)n1` [Compound 115, (E)-6-(6-(difluoromethoxy)pyridine-3-yl)-N'-((6-hydroxypyridine-2-yl)methylene) pyrazine-2-carbohydrazide], for which the 50% inhibitory concentration (IC50) in experiment [1] and in experiment [2] was above 1000 nM in each case.
